Calls of active or inactive are those of the source.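 Rule for the calls: active = mean IC50, the dose halving TNF-driven NF-kB light signal, at or below a set limit; inactive = the rest.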
System: HEK-293T NF-kB-Luc, TNFa-induced, luminescence, 14 h
Test: TNFa-driven NF-kB luciferase inhibition, HEK-293T – cell-based, HEK-293T NF-kB-Luc, luminescence, hits from both screens, counter-screen for BCR/TCR NF-kB inhibitor project, dose response (AID 489020);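 note: TNF-alpha stimulus at 0.1 ng/mL added with the seeded cells; selectivity counterscreen for hits from B- and T-cell receptor NF-kB screens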

| Structure (SMILES) | IC50 |
| --- | --- |
| CC1CCN(c2nc3ccc(C(=O)O)cc3s2)CC1 | 4090 nM |
| C[C@@H]1O[C@@H](O[C@@H]2C=C3CC[C@@H]4C(CC[C@]5(C)[C@@H](c6ccc(=O)oc6)CC[C@]45O)[C@@]3(C)CC2)[C@H](O)[C@H](O)[C@H]1O (stereo partly drawn) | < 160 nM |
| O=C(CN1C(=O)c2ccccc2S1(=O)=O)c1ccc2c(c1)OCCCO2 | < 160 nM |
| CCc1cc2c(Sc3nc4ccccc4s3)ncnc2s1 | 21300 nM (inactive) |
| CCCCCCCCCn1ccc(=N)cc1 | 510 nM |
| CCCCC[n+]1cccc2c3ccccc3ccc21 | 2130 nM |
| O=C1/C(=C/c2ccccc2)C[C@@]2(O)[C@H]3Cc4ccc(O)c5c4[C@@]2(CCN3CC2CC2)C1O5 (stereo partly drawn) | 8710 nM |
| N=c1c2c(n(Cc3ccc(Br)cc3)c3c1CCC3)CCCC2 | 4300 nM |
| C#CC(=O)N(c1ccc(OC)cc1OC)C(C(=O)NC1CCCC1)c1cccs1 (stereo not drawn) | 4970 nM |
| CC(=O)O[C@H]1[C@H]2O[C@]23[C@@H]2CC[C@]4(O)C[C@@H](O)CC[C@]4(C)C2CC[C@]3(C)[C@H]1c1ccc(=O)oc1 (stereo partly drawn) | < 160 nM |
| Cn1nc(C(C)(C)C)cc1C(=O)NCc1ccc(N2CCCC2=O)cc1 | 2010 nM |
| COc1ccc(CNc2ncc(-c3ccc(F)cc3)n2C)c2ccccc12 | 17800 nM |
| NC1=NC[C@H](Cc2ccc(O)cc2)N1CCCCC1CCCCC1 | 12900 nM |
| CC(C)(C)c1ccc(C(=O)Nc2ccc(CC(=O)O)cc2)o1 | 170 nM |
| O=C(CN1C(=O)c2ccccc2S1(=O)=O)c1ccc2c(c1)OCCO2 | 200 nM |
| Cc1ccc(NC(=O)COc2ccc(N(C)C(=O)C(C)(C)C)cc2)cc1S(=O)(=O)N1CCCCC1 | 1740 nM |
| O=S(=O)(NCC1CCCO1)c1ccc(-c2ccc(S(=O)(=O)NCC3CCCO3)cc2)cc1 (stereo not drawn) | 320 nM |
| Cc1ccc2nc(NC(=O)CCCC(=O)O)sc2c1 | 3130 nM |
| O=C(CCl)N=c1sccn1Cc1ccccc1Cl | 10100 nM |
| Cc1ccc(C(=O)Nc2cccc(C(F)(F)F)c2)cc1NC(=O)c1ccno1 | > 80000 nM (inactive) |
| C=C1C(=O)O[C@@H]2C[C@@H](C)[C@@H]3C=CC(=O)[C@@]3(C)[C@@H](OC(=O)CC(=O)O[C@H]3[C@@H]4C(=C)C(=O)O[C@@H]4C[C@@H](C)[C@@H]4C=CC(=O)[C@]43C)[C@H]12 | 1480 nM |
| COc1ccc(NS(=O)(=O)c2cccc(NC(=O)c3ccc(Cl)nc3)c2)cc1 | 310 nM |

| Structure (SMILES) | IC50 |
| --- | --- |
| c1ccc(-c2ccc(-c3nc(-c4ccccn4)no3)cc2)cc1 | 1690 nM |
| COc1ccc(-c2cc3nc(C)n(N)c(=O)c3s2)cc1 | 870 nM |
| Cc1cc2sc3ccc(C#CC4(O)CCCCC4)cc3c(=O)c2cc1C | < 160 nM |
| Cc1cc(CSc2ccccc2)ccc1NC(=O)c1ccc(CN2CCOCC2)cc1 | 260 nM |
| OCCCNc1nccc(-c2cc(Nc3cccc(Cl)c3)ncn2)n1 | 550 nM |
| Cc1sc2ncnc(N3CCN(CCOc4ccc(Cl)cc4)CC3)c2c1C | < 160 nM |
| CCCCCCCCn1ccc(=N)cc1 | 10800 nM |
| CCn1c(C)cc(C(=O)COC(=O)c2ccccc2[N+](=O)[O-])c1C | < 160 nM |
| CC(C)Cc1cc(C(C)(C)C)ccc1OC(=S)N(C)C | > 80000 nM (inactive) |
| O=C(c1ccc(Br)cc1)c1cc([N+](=O)[O-])ccc1N1CCCCC1 | 24500 nM (inactive) |
| COc1ccc(OC)c(C2C3=C(COC3=O)Nc3cc4c(cc32)OCO4)c1 (stereo not drawn) | > 80000 nM (inactive) |
| CCOc1ccc(/C=C2\SC(=S)N(CCC(=O)O)C2=O)cc1 | 34200 nM (inactive) |
| CC(C)c1ccc(-c2nnn(CCC(=O)O)n2)cc1 | 380 nM |
| C=C1C(O)[C@@H]2O[C@]3(CC[C@H](/C=C/C(C)[C@@H]4CC(C)=CC5(O[C@H](C[C@@](C)(O)C(=O)O)CCC5O)O4)O3)CC[C@H]2O[C@@H]1C(O)CC(C)[C@H]1OC2(CCCCO2)CCC1C (stereo partly drawn) | 310 nM |
| CC(C)(C)c1ccc(C(=O)N2CCCCCC2=O)cc1 | 1780 nM |
| COc1ccc(C[C@H]2NC[C@H](O)[C@H]2OC(C)=O)cc1 | < 160 nM |
| COc1ccc(C(=O)Nc2nc3ccccc3s2)c(OC)c1 | 220 nM |
| COc1cc(NC(=O)COc2cc(O)c3c(c2)OC(C)(C)CC3=O)cc(OC)c1OC | 380 nM |
| O=C(Nc1nc(-c2ccc(F)c(F)c2)cs1)c1ccc(OCC2CCCO2)cc1 (stereo not drawn) | 1560 nM |
| O=C(/C=C/c1ccccc1)Nc1cccc(C(=O)O)c1 | 2590 nM |
| CCN(CC)S(=O)(=O)c1ccc(Oc2ccc(S(=O)(=O)N(CC)CC)cc2)cc1 | 460 nM |

From PubChem BioAssay AID489020 (Sanford-Burnham Center for Chemical Genomics, 2010)
